Test results as given in patent publication US20070155782A1, “Nk-1 receptor antagonists anesthesia recovery” (priority 2004, published 2007).
Where “and” joins values, the source holds several entries; their conditions need not be identical. Identical values can stand only once.

Key:
geriatric beagles = experiment: Experiment B: recovery from general anesthesia in beagle dogs, 0.5 mg/kg compound of Formula Ia; assay type: in vivo
Procedure: (§1) The patients utilized in the study were maintained in standard facilities with appropriate heating and ventilation. All dogs were placed under general anesthesia. The duration of anesthesia, time to extubation and time to sternal recumbency were recorded. Also noted were behaviors indicative of dysphoria such as vocalization and purposeless movement. A visual analog scale (“VAS”) was used to score the “quality” of the entire recovery period.
(§2) As used herein, the term “duration of anesthesia” is the time in minutes elapsed between intubation and cessation of anesthetic gases.
(§3) As used herein, the term “time to extubation” is the time in minutes elapsed between cessation of anesthetic gases and the need for removal of the endotracheal tube due to spontaneous swallowing.
(§4) As used herein, the term “time to Sternal Recumbency” is the time in minutes elapsed between cessation of anesthetic gases and the time the dog could physically place and maintain itself in sternal recumbency.
(§5) Evaluation of Recovery Period. A visual analog scale (“VAS”) was used to score the “quality” of the recovery period (0=smooth recovery, 10=rough recovery). Factors considered included, but were not limited to, vocalization, purposeless movement as well as the subjective degree of dysphoria experienced by the dog. The study director, who was blinded to treatment assignments, assigned recovery scores.
(§6) Statistical Analysis. Data from two trials conducted according to the above procedure were combined for analysis purposes. The data in the following Tables and Figures are mean±standard deviation. Duration of anesthesia, time to extubation and time to sternal recumbency data were analyzed using a paired t-test for means in Excel. Recovery VAS data were analyzed using SAS Statistical Software.
Fifteen experimental geriatric beagles, weighing 9-16 kilograms and undergoing anesthesia for dental prophylaxis, were used in this study. All dogs were fasted overnight prior to anesthesia. Experimental dogs were subcutaneously administered 0.5 mg/kg compound of Formula Ia at the time of pre-anesthetic medication. Control dogs received no treatment in addition to routine pre-anesthesia medications. The duration of anesthesia, time to extubation and time to sternal recumbency were recorded.
(§7) Preparation of 0.5 mg/kg compound of Formula Ia dose: Formulations were prepared by dissolving the compound of Formula Ia (10 mg/mL) and SBE-CD (10%) in distilled water to form a solution. The solution was sonicated to facilitate complete dissolution and filtered through a 0.22 μm Millipore syringe top filter prior to injection.
Administration of Dose: Solutions of compound of Formula Ia (0.5 mg/kg) were administered by subcutaneous injection.
Anesthetic Protocol: General anesthesia was induced and maintained using the following protocol:
(1) Preanesthetic administration: the Experimental patients were treated with subcutaneous administration of a dose of compound of Formula Ia, as prepared above. Both experimental and control patients were administered glycopyrrolate (0.01 mg/kg SC), butorphanol (0.1 mg/kg SC) and penicillin (30,000 units/kg SC)
(2) During the induction period, the patients were administered intravenous methohexital (8 mg/kg IV).
(3) The patients were then maintained with inhalant isoflurane at concentrations ranging from 0.5 to 3%.
The patients were monitored continuously during the anesthetic and recovery periods.

mature mongrel dogs = experiment: Experiment A: anesthetic recovery in dogs, 1.0 mg/kg compound of Formula Ia vs saline control; assay type: in vivo
Procedure: as §1, §2, §3, §4, §5, §6
Experimental mature mongrel dogs, both male and female, weighing about 16-26 kilograms, were subcutaneously administered 1.0 mg/kg compound of Formula Ia one hour prior to preanesthetic administration. Control dogs were subcutaneously administered an equivalent volume of saline solution one hour prior to preanesthetic administration. The duration of anesthesia, time to extubation and time to sternal recumbency were recorded. The patients were monitored continuously during the anesthetic and recovery periods.
as §7, with “1.0” for “0.5”
Administration of Dose: Solutions of compound of Formula Ia (1.0 mg/kg) or saline placebo (0.1 mL/kg) were administered by subcutaneous injection (“SC”).
Anesthetic Protocol: General anesthesia was induced using the following protocol: (1) One hour prior to preanesthetic administration, the patients were treated with subcutaneous administration of either a dose of compound of Formula Ia, as prepared above, or the saline control (0.1 mL/kg).
(2) Thirty (30) minutes prior to induction (preanesthetic), the patients were administered glycopyrrolate (0.01 mg/kg SC) and butorphanol (0.1 mg/kg SC).
(3) During the induction period, the patients were administered intravenous methohexital (8 mg/kg IV).
(4) The patients were then maintained with inhaled isoflurane at concentrations ranging from 0.5 to 3%.

[1] = 0.5 mg/kg SC at time of pre-anesthetic medication, beagle dogs
[2] = 1 mg/kg SC one hour prior to preanesthetic, individual dogs
[3] = 1 mg/kg SC, Mean ± SD of 12 dogs

COc1ccc(C(C)(C)C)cc1CN[C@H]1C2CCN(CC2)[C@H]1C(c1ccccc1)c1ccccc1 [Compound of Formula Ia, (2S,3S)-2-benzhydryl-N-(5-tert-butyl-2-methoxybenzyl)quinuclidin-3-amine]
Time to extubation, experimental vs control group (geriatric beagles; 0.5 mg/kg SC): no statistical difference | Time to sternal recumbency, experimental vs control group (geriatric beagles; 0.5 mg/kg SC): no statistical difference | Visual analog score for smoothness of recovery period, experimental vs control group (geriatric beagles; 0.5 mg/kg SC): no statistical difference | Time to Extubation Mean ± SD (geriatric beagles; [1]): 5.00 ± 4.47 min | Time to Sternal Recumbency Mean ± SD (geriatric beagles; [1]): 10.86 ± 10.67 min | Subjective appearance during the recovery period vs control dogs (geriatric beagles; 0.5 mg/kg SC during the preoperative period): tended to look less anxious | Recovery Score Mean ± SD (geriatric beagles; 0.5 mg/kg SC, VAS 0=smooth, 10=rough, beagle dogs): 3.46 ± 1.54 cm | Treated dogs that received visual analog scores of less than 5 cm (geriatric beagles; 0.5 mg/kg SC, control dogs 4 out of 8): 7 out of 7 | Time to extubation compared with saline group (mature mongrel dogs; 1 mg/kg SC): similar | Time to sternal recumbency compared with saline group (mature mongrel dogs; 1 mg/kg SC): similar | Time to Extubation (mature mongrel dogs; [2]): 2 min (4×) and 1 min (2×) and 3 min and 5 min (3×) and 4 min (2×) | Time to Sternal Recumbency (mature mongrel dogs; [2]): 4 min and 3 min (4×) and 6 min (2×) and 1 min and 11 min and 9 min (2×) and 7 min | Time to Extubation (mature mongrel dogs; [3]): 3 ± 2 min | Time to Sternal Recumbency (mature mongrel dogs; [3]): 5 ± 3 min | Recovery Quality (mature mongrel dogs; 1 mg/kg SC, VAS 0=smooth recovery, 10=rough recovery, individual dogs): 7.1 cm and 1.4 cm and 2.1 cm and 0.7 cm and 0.9 cm and 3.9 cm and 0.2 cm and 1.1 cm and 1.8 cm and 1.9 cm and 4.7 cm and 2.4 cm | Recovery Quality (mature mongrel dogs; 1 mg/kg SC, VAS 0=smooth, 10=rough, Mean ± SD of 12 dogs, p=0.02 vs saline): 2.3 ± 2 cm | Recovery scores compared with saline (mature mongrel dogs; 1 mg/kg SC, p=0.02): significantly lower recovery scores | Recovery VAS scores lower than saline controls (mature mongrel dogs; 1 mg/kg SC, vs saline controls): 43.9%
